24 molecules from patent US9346798B2, “Dihydrobenzoxazine and tetrahydroquinoxaline sodium channel inhibitors” (AMGEN INC., priority 2012, dated 2016) can be followed below.

What all share (format): cell-based
For series [1], the target named is T1, Nav 1.7 (Homo sapiens (Human), UniProt Q15858). Description: Nav 1.7 in vitro assay, IonWorks Quattro (IWQ) population patch-clamp. The following applies: HEK 293 cells stably transfected with Nav 1.7; 26th pulse to -20 mV.
The target in the next series is Nav 1.5 (Homo sapiens (Human), UniProt Q14524). Description: Nav 1.5 in vitro assay, IonWorks Quattro (IWQ) population patch-clamp. Particulars: HEK 293 cells stably transfected with Nav 1.5; 26th pulse to -20 mV. For orientation: The patch-clamp technique gives a direct electrical read-out from membranes.
Series [2] concerns the target T1, Nav 1.7. The series can be described thus: Nav 1.7 in vitro PX assay, PatchXpress whole cell voltage clamp. Particulars: HEK 293 cells stably transfected with human Nav1.7; partially inactivated state (20 to 50% inactivation). The procedure, abridged:
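HEK293 cells stably expressing human Nav1.7, whole-cell voltage clamp at a holding potential giving 20–50% inactivation; currents elicited by 20 msec pulses to −10 mV at 0.1 Hz.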

What is called IC50 is the midpoint of a concentration-inhibition curve.

Nav 1.5, sequence (Q14524 whole entry): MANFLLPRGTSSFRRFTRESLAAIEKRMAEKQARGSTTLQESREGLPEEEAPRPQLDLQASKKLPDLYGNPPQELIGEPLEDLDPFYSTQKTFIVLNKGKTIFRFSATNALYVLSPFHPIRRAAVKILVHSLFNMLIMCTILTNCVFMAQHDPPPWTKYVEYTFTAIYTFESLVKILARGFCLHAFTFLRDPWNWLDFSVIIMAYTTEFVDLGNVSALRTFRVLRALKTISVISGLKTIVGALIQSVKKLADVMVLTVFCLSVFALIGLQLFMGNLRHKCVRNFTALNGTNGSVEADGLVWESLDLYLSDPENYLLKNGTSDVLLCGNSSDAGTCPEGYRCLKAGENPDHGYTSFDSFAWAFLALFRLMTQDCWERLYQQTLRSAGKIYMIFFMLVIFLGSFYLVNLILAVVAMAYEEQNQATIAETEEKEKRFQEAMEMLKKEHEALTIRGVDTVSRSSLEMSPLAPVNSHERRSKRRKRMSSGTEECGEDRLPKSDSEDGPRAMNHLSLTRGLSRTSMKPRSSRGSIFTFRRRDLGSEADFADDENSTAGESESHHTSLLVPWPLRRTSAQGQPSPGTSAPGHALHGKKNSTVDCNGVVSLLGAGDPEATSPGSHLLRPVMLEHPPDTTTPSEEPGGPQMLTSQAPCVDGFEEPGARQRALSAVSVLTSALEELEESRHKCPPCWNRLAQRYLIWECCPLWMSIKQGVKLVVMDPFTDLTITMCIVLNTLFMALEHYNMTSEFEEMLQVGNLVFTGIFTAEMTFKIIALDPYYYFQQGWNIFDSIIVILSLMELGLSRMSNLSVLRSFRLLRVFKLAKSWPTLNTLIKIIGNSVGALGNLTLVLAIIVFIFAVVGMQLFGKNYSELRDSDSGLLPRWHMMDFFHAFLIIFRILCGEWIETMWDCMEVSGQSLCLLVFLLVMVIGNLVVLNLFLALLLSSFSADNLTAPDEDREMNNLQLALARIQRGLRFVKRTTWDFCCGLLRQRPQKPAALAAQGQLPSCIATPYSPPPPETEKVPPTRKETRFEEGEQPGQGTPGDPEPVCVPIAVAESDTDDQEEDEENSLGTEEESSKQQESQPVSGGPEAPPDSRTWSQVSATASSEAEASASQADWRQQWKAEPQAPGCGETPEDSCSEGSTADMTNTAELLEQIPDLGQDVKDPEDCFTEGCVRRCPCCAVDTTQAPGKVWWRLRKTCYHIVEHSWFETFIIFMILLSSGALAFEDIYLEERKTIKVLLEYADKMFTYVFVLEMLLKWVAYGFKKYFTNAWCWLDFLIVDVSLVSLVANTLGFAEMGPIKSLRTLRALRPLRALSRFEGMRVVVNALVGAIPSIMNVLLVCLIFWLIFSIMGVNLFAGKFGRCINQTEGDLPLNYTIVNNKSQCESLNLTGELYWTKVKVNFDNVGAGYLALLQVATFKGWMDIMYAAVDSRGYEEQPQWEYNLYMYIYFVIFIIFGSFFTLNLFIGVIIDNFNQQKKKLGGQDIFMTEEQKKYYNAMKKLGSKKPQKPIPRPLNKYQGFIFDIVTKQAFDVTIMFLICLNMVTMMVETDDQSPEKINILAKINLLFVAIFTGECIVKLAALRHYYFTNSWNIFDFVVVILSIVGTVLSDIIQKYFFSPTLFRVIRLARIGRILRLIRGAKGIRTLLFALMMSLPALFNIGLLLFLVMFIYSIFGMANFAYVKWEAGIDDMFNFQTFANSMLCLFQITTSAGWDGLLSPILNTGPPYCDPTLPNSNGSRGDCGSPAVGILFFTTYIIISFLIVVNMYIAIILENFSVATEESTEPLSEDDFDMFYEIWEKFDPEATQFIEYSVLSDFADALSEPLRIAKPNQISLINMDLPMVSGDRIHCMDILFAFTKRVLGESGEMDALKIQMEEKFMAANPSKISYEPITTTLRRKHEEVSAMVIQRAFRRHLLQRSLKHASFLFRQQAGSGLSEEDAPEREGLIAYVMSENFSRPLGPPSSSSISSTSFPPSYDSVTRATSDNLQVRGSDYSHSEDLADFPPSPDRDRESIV
T1 sequence (Q15858 whole entry): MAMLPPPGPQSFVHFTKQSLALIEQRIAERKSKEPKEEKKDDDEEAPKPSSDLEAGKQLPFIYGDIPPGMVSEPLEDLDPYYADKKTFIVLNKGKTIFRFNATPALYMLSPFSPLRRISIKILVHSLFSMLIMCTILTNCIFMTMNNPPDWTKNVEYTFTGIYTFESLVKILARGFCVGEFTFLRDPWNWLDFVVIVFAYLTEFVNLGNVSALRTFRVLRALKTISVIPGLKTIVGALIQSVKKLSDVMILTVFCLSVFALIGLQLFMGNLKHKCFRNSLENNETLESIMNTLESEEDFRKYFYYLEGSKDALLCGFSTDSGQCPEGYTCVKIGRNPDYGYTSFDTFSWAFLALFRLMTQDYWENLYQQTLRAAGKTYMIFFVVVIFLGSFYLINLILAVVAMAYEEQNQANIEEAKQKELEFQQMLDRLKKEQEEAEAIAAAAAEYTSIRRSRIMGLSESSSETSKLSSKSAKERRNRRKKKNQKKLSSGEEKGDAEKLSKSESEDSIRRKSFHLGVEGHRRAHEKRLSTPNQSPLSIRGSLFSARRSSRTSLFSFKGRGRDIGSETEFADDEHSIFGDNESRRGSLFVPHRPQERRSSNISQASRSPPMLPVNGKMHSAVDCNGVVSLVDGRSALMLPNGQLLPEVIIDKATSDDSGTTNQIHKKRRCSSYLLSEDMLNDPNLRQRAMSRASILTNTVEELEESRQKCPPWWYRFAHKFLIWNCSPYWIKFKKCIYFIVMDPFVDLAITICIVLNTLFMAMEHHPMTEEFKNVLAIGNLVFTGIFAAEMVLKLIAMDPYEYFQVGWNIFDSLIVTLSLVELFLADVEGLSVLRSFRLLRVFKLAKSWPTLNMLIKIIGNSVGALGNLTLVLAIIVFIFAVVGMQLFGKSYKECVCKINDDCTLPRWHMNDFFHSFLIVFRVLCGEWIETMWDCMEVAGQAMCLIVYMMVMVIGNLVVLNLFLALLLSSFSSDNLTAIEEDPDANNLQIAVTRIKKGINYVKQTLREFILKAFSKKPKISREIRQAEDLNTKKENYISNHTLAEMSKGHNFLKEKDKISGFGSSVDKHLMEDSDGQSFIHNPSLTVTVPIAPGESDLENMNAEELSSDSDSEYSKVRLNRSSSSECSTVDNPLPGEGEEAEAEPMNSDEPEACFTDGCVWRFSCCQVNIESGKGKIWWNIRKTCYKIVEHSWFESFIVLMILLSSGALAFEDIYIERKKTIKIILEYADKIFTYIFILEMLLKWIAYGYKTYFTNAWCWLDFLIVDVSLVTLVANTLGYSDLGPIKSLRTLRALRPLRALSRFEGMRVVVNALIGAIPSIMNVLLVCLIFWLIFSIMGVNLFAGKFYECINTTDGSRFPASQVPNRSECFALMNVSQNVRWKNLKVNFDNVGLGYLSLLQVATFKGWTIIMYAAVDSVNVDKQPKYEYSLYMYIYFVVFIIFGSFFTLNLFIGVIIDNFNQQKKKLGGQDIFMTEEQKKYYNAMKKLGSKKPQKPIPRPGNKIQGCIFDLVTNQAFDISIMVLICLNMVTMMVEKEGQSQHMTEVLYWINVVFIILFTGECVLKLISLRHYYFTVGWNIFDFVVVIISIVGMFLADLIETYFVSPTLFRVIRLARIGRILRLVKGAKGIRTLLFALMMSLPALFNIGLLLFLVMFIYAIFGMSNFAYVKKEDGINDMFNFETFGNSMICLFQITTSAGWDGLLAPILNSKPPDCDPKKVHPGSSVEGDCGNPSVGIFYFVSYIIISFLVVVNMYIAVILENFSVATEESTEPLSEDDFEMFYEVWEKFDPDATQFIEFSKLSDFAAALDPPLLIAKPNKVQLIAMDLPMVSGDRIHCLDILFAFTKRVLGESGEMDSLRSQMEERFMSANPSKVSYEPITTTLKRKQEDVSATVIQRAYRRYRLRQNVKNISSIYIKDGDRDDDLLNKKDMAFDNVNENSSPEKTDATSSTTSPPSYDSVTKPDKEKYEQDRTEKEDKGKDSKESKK

`O=S(=O)(Nc1nccs1)c1ccc2c(c1)OCCN2c1ccc(C(F)(F)F)cc1Cl` [Example 5, 4-(2-Chloro-4-(Trifluoromethyl)Phenyl)-N-(Thiazol-2-Yl)-3,4-Dihydro-2H-Benzo[B][1,4]Oxazine-7-Sulfonamide]: the IC50 at Nav 1.7 [1] worked out at 245 nM; against Nav 1.5 it was 4030 nM; at Nav 1.7 [2] it was 322 nM.
The corresponding values for `O=S(=O)(Nc1nncs1)c1ccc2c(c1)OCCN2c1ccc(C(F)(F)F)cc1Cl` [Example 28, 4-(2-Chloro-4-(Trifluoromethyl)Phenyl)-N-(1,3,4-Thiadiazol-2-Yl)-3,4-Dihydro-2H-Benzo[B][1,4]Oxazine-7-Sulfonamide] are 656 nM, over 10000 nM and 2650 nM.
For `COc1ccc(C(F)(F)F)cc1N1CCOc2cc(S(=O)(=O)Nc3nccs3)ccc21` [Example 114, 4-(2-Methoxy-5-(trifluoromethyl)phenyl)-N-(thiazol-2-yl)-3,4-dihydro-2H-benzo[b][1,4]oxazine-7-sulfonamide], in that order: 40.5 nM, 5060 nM and 278 nM.
Take `COc1cnc(N2CCOc3cc(S(=O)(=O)Nc4nccs4)ccc32)c(OC)n1` [Example 143, 4-(3,5-Dimethoxypyrazin-2-yl)-N-(thiazol-2-yl)-3,4-dihydro-2H-benzo[b][1,4]oxazine-7-sulfonamide]: the values for the half-inhibitory concentration (IC50) at Nav 1.7 [1], on Nav 1.5 and against Nav 1.7 [2] were 1010 nM, over 10000 nM and 9070 nM, respectively.
Take `Cc1cc(N2CCOc3cc(S(=O)(=O)Nc4nccs4)ccc32)c(C)cn1` [Example 134, 4-(2,5-Dimethylpyridin-4-yl)-N-(thiazol-2-yl)-3,4-dihydro-2H-benzo[b][1,4]oxazine-7-sulfonamide]: the IC50 against Nav 1.7 [1] is 1340 nM; on Nav 1.5, over 10000 nM; against Nav 1.7 [2], 17100 nM.
The corresponding values for `N#Cc1ccc(N2CCOc3cc(S(=O)(=O)Nc4nccs4)ccc32)cc1` [Example 76, 4-(4-Cyanophenyl)-N-(Thiazol-2-Yl)-3,4-Dihydro-2H-Benzo[B][1,4]Oxazine-7-Sulfonamide 2,2,2-Trifluoroacetate] are 871 nM, 6030 nM and 9230 nM.
As for `CCC1CN(c2ccc(C(F)(F)F)cc2C#N)c2ccc(S(=O)(=O)Nc3nccs3)cc2O1` (racemic) [Example 100, 4-(2-Cyano-4-(Trifluoromethyl)Phenyl)-2-Ethyl-N-(Thiazol-2-Yl)-3,4-Dihydro-2H-Benzo[B][1,4]Oxazine-7-Sulfonamide], the IC50 was 679 nM on Nav 1.7 [1], over 10000 nM against Nav 1.5 and 5790 nM at Nav 1.7 [2].
For `N#Cc1cc(C(F)(F)F)ccc1N1CCOc2c1ccc(S(=O)(=O)Nc1nccs1)c2F` [Example 216, 4-(2-Cyano-4-(Trifluoromethyl)Phenyl)-8-Fluoro-N-(Thiazol-2-Yl)-3,4-Dihydro-2H-Benzo[B][1,4]Oxazine-7-Sulfonamide], in that order: 34 nM, 5730 nM and 516 nM.
Take `CC1CN(c2ccc(C(F)(F)F)cc2C#N)c2ccc(S(=O)(=O)Nc3nccs3)cc2O1` (racemic) [Example 93, 4-(2-Cyano-4-(Trifluoromethyl)Phenyl)-2-Methyl-N-(Thiazol-2-Yl)-3,4-Dihydro-2H-Benzo[B][1,4]Oxazine-7-Sulfonamide]: the IC50 was found to be 78.5 nM at Nav 1.7 [1], 1840 nM against Nav 1.5 and 566 nM at Nav 1.7 [2].
For `Cc1cccc(N2CCOc3cc(S(=O)(=O)Nc4nccs4)ccc32)c1` [Example 75, N-(Thiazol-2-Yl)-4-(M-Tolyl)-3,4-Dihydro-2H-Benzo[B][1,4]Oxazine-7-Sulfonamide 2,2,2-Trifluoroacetate], in that order: 182 nM, 7370 nM and 706 nM.
Turning to `CC(C)c1ccc(N2CCOc3cc(S(=O)(=O)Nc4nccs4)ccc32)cc1` [Example 112, 4-(4-Isopropylphenyl)-N-(thiazol-2-yl)-3,4-dihydro-2H-benzo[b][1,4]oxazine-7-sulfonamide], the IC50 at Nav 1.7 [1] is 1660 nM; against Nav 1.5, over 10000 nM; on Nav 1.7 [2], 12200 nM.
The corresponding values for `Cc1onc(-c2ccccc2)c1CN1CCOc2cc(S(=O)(=O)Nc3nccs3)ccc21` [Example 221, 4-((5-Methyl-3-Phenylisoxazol-4-Yl)Methyl)-N-(Thiazol-2-Yl)-3,4-Dihydro-2H-Benzo[B][1,4]Oxazine-7-Sulfonamide] are 564 nM, over 10000 nM and 3030 nM.
As for `C[C@@H]1COc2cc(S(=O)(=O)Nc3nccs3)ccc2N1c1ccc(C(F)(F)F)cc1C#N` (single isomer, unassigned) [Example 97], the figures for the IC50 against Nav 1.7 [1], against Nav 1.5 and at Nav 1.7 [2] were 208 nM, 851 nM and 772 nM, respectively.
The corresponding values for `O=S(=O)(Nc1nccs1)c1ccc2c(c1)OCCN2c1ccccc1-c1ccncc1` [Example 147, 4-(2-(Pyridin-4-yl)phenyl)-N-(thiazol-2-yl)-3,4-dihydro-2H-benzo[b][1,4]oxazine-7-sulfonamide] are 107 nM, over 10000 nM and 1990 nM.
Consider `O=S(=O)(Nc1nccs1)c1ccc2c(c1)OCCN2c1cccc2ccncc12` [Example 68, 4-(Isoquinolin-8-Yl)-N-(Thiazol-2-Yl)-3,4-Dihydro-2H-Benzo[B][1,4]Oxazine-7-Sulfonamide 2,2,2-Trifluoroacetate], for which the figures for the concentration for half-maximal inhibition (IC50) at Nav 1.7 [1], against Nav 1.5 and against Nav 1.7 [2] were 158 nM, 4830 nM and 1750 nM, respectively.
For `N#Cc1ccc(Cl)cc1N1CCOc2cc(S(=O)(=O)Nc3nccs3)ccc21` [Example 192, 4-(5-Chloro-2-Cyanophenyl)-N-(Thiazol-2-Yl)-3,4-Dihydro-2H-Benzo[B][1,4]Oxazine-7-Sulfonamide], in that order: 52.5 nM, 1610 nM and 769 nM.
As for `CCOc1ccc(N2CCOc3cc(S(=O)(=O)Nc4nccs4)ccc32)cn1` [Example 138, 4-(6-Ethoxypyridin-3-yl)-N-(thiazol-2-yl)-3,4-dihydro-2H-benzo[b][1,4]oxazine-7-sulfonamide], the IC50 turned out to be 860 nM at Nav 1.7 [1], 3830 nM against Nav 1.5 and 11500 nM against Nav 1.7 [2].
In the case of `COc1ncc(C(F)(F)F)cc1N1CCOc2cc(S(=O)(=O)Nc3nccs3)ccc21` [Example 145, 4-(2-Methoxy-5-(trifluoromethyl)pyridin-3-yl)-N-(thiazol-2-yl)-3,4-dihydro-2H-benzo[b][1,4]oxazine-7-sulfonamide], the IC50 stood at 235 nM against Nav 1.7 [1], 7380 nM at Nav 1.5 and 11800 nM on Nav 1.7 [2].
For `CCC1CN(c2ccc(C(F)(F)F)cc2C#N)c2ccc(S(=O)(=O)Nc3nccs3)cc2O1` (single isomer, unassigned) [Example 102], in that order: 1390 nM, over 10000 nM and 8890 nM.
For the molecule `O=S(=O)(Nc1nccs1)c1ccc2c(c1)OCCN2c1ccc(C(F)(F)F)cc1CO` [Example 206, 4-(2-(hydroxymethyl)-4-(trifluoromethyl)phenyl)-N-(thiazol-2-yl)-3,4-dihydro-2H-benzo[b][1,4]oxazine-7-sulfonamide], the IC50 against Nav 1.7 [1] was 31.5 nM; on Nav 1.5, 1140 nM; on Nav 1.7 [2] it was 174 nM.
Turning to `Cc1ccc(F)c(N2CCOc3cc(S(=O)(=O)Nc4nccs4)ccc32)c1` [Example 80, 4-(2-Fluoro-5-Methylphenyl)-N-(Thiazol-2-Yl)-3,4-Dihydro-2H-Benzo[B][1,4]Oxazine-7-Sulfonamide 2,2,2-Trifluoroacetate], the concentration for half-maximal inhibition (IC50) against Nav 1.7 [1] amounted to 126 nM; at Nav 1.5 it was 5640 nM; at Nav 1.7 [2] it was 340 nM.
The corresponding values for `O=S(=O)(Nc1nccs1)c1ccc2c(c1)OCCN2c1cccc(Cl)c1` [Example 41, 4-(3-Chlorophenyl)-N-(Thiazol-2-Yl)-3,4-Dihydro-2H-Benzo[B][1,4]Oxazine-7-Sulfonamide] are 111 nM, 4930 nM and 640 nM.
The corresponding values for `COc1cc(Cl)ccc1N1C[C@H](C)Oc2cc(S(=O)(=O)Nc3nccs3)ccc21` (single isomer, unassigned) [Example 104] are 110 nM, over 10000 nM and 657 nM.
The corresponding values for `CC[C@H]1CN(c2ccc(C(F)(F)F)cc2C#N)c2ccc(S(=O)(=O)Nc3nccs3)cc2O1` (single isomer, unassigned) [Example 101] are 367 nM, 8500 nM and 3630 nM.
